For two compounds, EC50, Emax and MED results are on record in patent US9051339B2, “Sulfur-containing bicyclic compound” (Astellas Pharma Inc., priority 2013, dated 2015).

SMILES strings stand for the structures.

In experiment [1] the target is T1, heterodimers of GABAB1b and GABAB2 (Homo sapiens, UniProt O75899+Q9UBS5).
T1 construct: host or cells: HEK293
Description: FLIPR intracellular calcium mobilization in HEK293 cells stably expressing GABAB receptor. It is filed as cell-based. The settings on record: 100 μM GABA = 100%; for EC50: concentration raising reaction rate from 5% with 1 μM GABA to 50%, read-out: Potency (PAM Potency of GABAB); for Emax: maximum reaction rate in presence of 1 μM GABA, test drug up to 30 μM, read-out: Efficacy (PAM Efficacy of GABAB). From the text:
A natural GABAB receptor has a heterodimeric structure consisting of two kinds of subunits of GABAB1 and GABAB2 (Nature, 1997, vol. 386, p. 239-246) In the subunit of GABAB1, two major splice variants referred to as GABAB1a and 1b exist. However, the two variants have no difference in the pharmacological effects in the receptor-downstreaming signals (Nature, 1998, vol. 396, p. 683-687).
In HEK293 cells expressing the heterodimers of GABAB1b and GABAB2, the PAM action in the presence of GABA was measured over time with a change in the intracellular Ca^2+ concentration using RFU (relative fluorescence units) as an index, and evaluated.
All vectors, wherein each vector was formed by human GABAB1b (NM_021903. 2), GABAB2 (NM_005458. 7), or Gαqo chimera, were incorporated by lipofection to establish stably expressing human embryonic kidney-derived cell lines, HEK293 cells (ATCC).
The Gαqo chimera was fabricated by the following method. The genes coding human Gαq (NM_002072.3) were cloned, and C-terminal 15 base pairs (1107-1121 bp) of ORF (41-1121 bp) of Gaq was substituted with C-terminal 15 base pairs (1948-1962 bp) of ORF (898-1962 bp) of human Gao (NM_138736. 2) into a Gαqo chimera.
A change in the intracellular concentration of calcium mobilized due to activation of a GABAB receptor was measured with a Fluorometric Imaging Plate Reader (FLIPR, Molecular Devices). The stably expressing cells established as described above were proliferated in a D-MEM medium containing a screening agent (0.5 mg/mL G418 Disulfate and 0.2 mg/mL Hydromycin B solution), 1% penicillin/streptomycin, and 10% FCS. About 1×10^4 cells/well were diluted and seeded in a black-wall, 384-well poly-D-lysin-coated plate (Becton Dickinson) in a D-MEM medium containing 10% FCS, but not a selective agent and 1% penicillin/streptomycin. After 24 hours, the medium was removed from the plate, and a Fluo-4 loaded solution (20 μL) was added to each well, followed by incubation at room temperature for 2 hours. The fluorescent reagent loaded solution was removed from each well, the cells were washed with a base buffer three times, and then a base buffer (20 μL) was added thereto, followed by analysis with FLIPR TETRA (Molecular Devices). The base buffer (10 μL) solution of the test drug was added thereto to a final concentration (1 nM to 30 μM) and the measurement of a change in the fluorescence was initiated. Thereafter, GABA (1 μM, 20 μL) was added thereto and the measurement was continued. The change in the fluorescence was measured every two or five seconds.
The maximum reaction rate of 100 μM GABA was taken as 100%. […]
(In general: Calcium assays in cells follow changes in intracellular calcium, usually with a dye or a luminescent sensor.)

Experiment [2] has as its system pressure pain threshold in the gastrocnemius muscle. Description: Pressure pain threshold in model with reserpine-induced muscle pain. It is filed as in vivo. The following applies: oral, measured after 30 minutes; male SD rat; reserpine 1 mg/kg s.c. for 3 days. The method, then:
This model is a model that mimics the pathological conditions of fibromyalgia. This test was carried out on the basis of the description in Pain, 2009, vol. 146, p. 26-33. Reserpine (1 mg/kg) was subcutaneously administered to the male SD rat (Japan SLC, Inc.)) once per day for 3 days. After 5 days, the solvent or the test drug was orally administered. After 30 minutes, the pressure pain threshold value was measured using a Randall-Selitto instrument (Muromachi Kikai Co., Ltd.) in the gastrocnemius muscle. The significant difference assay between the solvent group and the group administered with the test drug was carried out by comparison between the groups using a Student's t-test or a Dunnett's multiple comparison test. Here, the value obtained by administering a solvent to a normal rat not administered with reserpine was taken as 100%, and the value of the reserpine group administered with a solvent was taken as 0%. In each assay, if p<0.05 was satisfied, it was determined that there was a significant difference.

T1 sequence (Q9UBS5 1-844 isoform Q9UBS5-2): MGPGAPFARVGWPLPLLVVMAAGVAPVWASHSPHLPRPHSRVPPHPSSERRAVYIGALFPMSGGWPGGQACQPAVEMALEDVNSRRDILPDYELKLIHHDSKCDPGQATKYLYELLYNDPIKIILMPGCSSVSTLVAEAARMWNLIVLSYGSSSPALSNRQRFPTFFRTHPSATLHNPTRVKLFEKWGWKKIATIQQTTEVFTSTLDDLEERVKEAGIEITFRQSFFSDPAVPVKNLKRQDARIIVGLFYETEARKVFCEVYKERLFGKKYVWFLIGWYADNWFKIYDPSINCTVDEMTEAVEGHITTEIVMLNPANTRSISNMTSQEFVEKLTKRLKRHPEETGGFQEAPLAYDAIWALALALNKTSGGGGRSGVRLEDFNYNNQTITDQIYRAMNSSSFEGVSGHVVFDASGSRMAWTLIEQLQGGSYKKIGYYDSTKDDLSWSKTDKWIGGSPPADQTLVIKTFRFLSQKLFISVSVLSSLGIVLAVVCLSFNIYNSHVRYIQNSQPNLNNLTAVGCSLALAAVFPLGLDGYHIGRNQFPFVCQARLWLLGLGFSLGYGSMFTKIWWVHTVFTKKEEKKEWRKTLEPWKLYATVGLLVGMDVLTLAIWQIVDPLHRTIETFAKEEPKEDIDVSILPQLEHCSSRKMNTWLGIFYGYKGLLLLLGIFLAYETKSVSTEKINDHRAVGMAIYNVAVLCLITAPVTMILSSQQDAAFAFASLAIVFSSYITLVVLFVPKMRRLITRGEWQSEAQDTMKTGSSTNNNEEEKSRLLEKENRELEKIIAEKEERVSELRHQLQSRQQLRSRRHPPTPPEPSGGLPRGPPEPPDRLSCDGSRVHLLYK
T1 sequence (O75899 42-941): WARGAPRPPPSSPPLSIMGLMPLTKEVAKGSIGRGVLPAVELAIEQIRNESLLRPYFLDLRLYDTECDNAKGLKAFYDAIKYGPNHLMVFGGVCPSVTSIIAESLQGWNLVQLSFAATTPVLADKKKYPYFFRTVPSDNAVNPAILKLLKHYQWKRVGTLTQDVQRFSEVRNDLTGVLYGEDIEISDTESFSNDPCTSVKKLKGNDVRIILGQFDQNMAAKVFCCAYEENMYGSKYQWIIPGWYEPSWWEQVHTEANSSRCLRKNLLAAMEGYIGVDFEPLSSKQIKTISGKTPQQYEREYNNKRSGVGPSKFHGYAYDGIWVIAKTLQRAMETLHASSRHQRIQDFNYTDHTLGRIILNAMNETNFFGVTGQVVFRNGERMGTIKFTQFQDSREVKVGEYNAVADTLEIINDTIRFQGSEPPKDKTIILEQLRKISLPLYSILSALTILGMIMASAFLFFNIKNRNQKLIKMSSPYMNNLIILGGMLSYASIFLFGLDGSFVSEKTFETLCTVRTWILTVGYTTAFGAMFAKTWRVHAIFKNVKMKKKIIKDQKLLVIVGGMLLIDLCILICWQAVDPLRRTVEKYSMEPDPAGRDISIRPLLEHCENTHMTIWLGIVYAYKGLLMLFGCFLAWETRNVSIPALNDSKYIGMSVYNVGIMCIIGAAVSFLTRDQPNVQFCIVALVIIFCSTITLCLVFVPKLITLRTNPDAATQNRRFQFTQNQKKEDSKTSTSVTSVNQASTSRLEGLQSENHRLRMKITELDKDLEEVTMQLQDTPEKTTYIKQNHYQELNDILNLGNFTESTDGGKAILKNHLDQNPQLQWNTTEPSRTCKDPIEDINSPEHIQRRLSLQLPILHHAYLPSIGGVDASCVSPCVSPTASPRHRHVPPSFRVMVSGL

Consider `Cc1nc(CN2CC[C@@H](O)[C@H](O)C2)c2cc(C3CCC(C)(C)CC3)sc2n1` (single isomer, unassigned) [Ex31, trans-1-{[6-(4,4-dimethylcyclohexyl)-2-methylthieno[2,3-d]pyrimidin-4-yl]methyl}piperidine-3,4-diol], for which, in experiment [1], the EC50 turned out to be 220 nM and the Emax came out at 273%.
Turning to `Cc1nc(CN2CCS(=O)(=O)CC2)c2cc(C3CCC(C)(C)CC3)sc2n1` [Ex2, 6-(4,4-dimethylcyclohexyl)-4-[(1,1-dioxidothiomorpholin-4-yl)methyl]-2-methylthieno[2,3-d]pyrimidine], in experiment [1], the EC50 was 59 nM and the Emax was found to be 470%. In experiment [2], this compound registered an MED of 0.03 mg/kg.
